# Reference: ChEMBL document CHEMBL4402577, “Discovery and Optimization of a Compound Series Active against Trypanosoma cruzi, the Causative Agent of Chagas Disease” (J Med Chem, 2020)
# The source made the active and inactive calls. The rule behind the calls is not given here.
# Columns and labels:
# [1] = Selectivity ratio, EC50 for cytotoxicity against rat L6 cells to EC50 for antitrypanosomal activity against Trypanosoma cruzi Tulahuen strain C2C4 trypomastigotes infected in rat L6 cells; type: toxicity, cell-based; settings: read-out: Ratio EC50
# [2] = Intrinsic clearance in CD1 mouse liver microsomes at 0.5 uM measured up to 30 mins in presence of NADPH by UPLC-MSMS analysis; type: ADME, Microsome; settings: 0.5 h
# Trypanosoma cruzi [3] = test: Antitrypanosomal activity against Trypanosoma cruzi Brazil strain trypomastigotes coexpressing luciferase infected in BALB/c mouse model of acute chagas disease assessed as reduction in parasite level at 30 mg/kg, ip treated 3 days post infection and measured on day 5 and 10; type: functional, organism-based
# L6 = test: Cytotoxicity against rat L6 cells incubated for 70 hrs by resazurin dye based assay; type: cell-based; settings: L6, 70 h
# Trypanosoma cruzi [4] = test: Antitrypanosomal activity against Trypanosoma cruzi Brazil strain trypomastigotes coexpressing luciferase infected in BALB/c mouse model of acute chagas disease assessed as reduction in parasite level at 30 mg/kg, po treated 3 days post infection and measured on day 5 and 10; type: functional, organism-based
# [5] = Fraction unbound in NMRI mouse plasma at 30 mg/kg, iv by UPLC-MS/MS analysis; type: ADME, organism-based
# Trypanosoma cruzi [6] = test: Antitrypanosomal activity against Trypanosoma cruzi Tulahuen strain C2C4 trypomastigotes infected in rat L6 cells incubated for 96 hrs by photometric method based assay; type: functional, organism-based; settings: Tulahuen strain C2C4, L6, 96 h
# [7] = Kinetic aqueous solubility of compound in DMSO by nephelometric analysis; type: physicochemical; settings: read-out: Kinetic_solubility
# [8] = Toxicity in ip dosed BALB/c mouse model of acute chagas disease assessed as maximum tolerated dose; type: organism-based; settings: in vivo
smiles,measurement,setting,value
CC(=O)Nc1ccc2[nH]c(=O)n([C@H]3CC[C@H](C(C)C)CC3)c(=O)c2c1,selectivity ratio,[1],150
same,intrinsic clearance,[2],3.2 mL/min/g
same,Activity,Trypanosoma cruzi [3],Active
same,EC50,L6,3.8 µM
same,Activity,Trypanosoma cruzi [4],Active
same,fraction unbound,[5],0.028
same,EC50,Trypanosoma cruzi [6],26 nM
same,EC90,Trypanosoma cruzi [6],0.038 µg/mL
same,solubility kinetic,[7],73 µM
CC(=O)Nc1ccc2[nH]c(=O)n([C@H]3CO[C@@H](C(C)(C)C)OC3)c(=O)c2c1,selectivity ratio,[1],29
same,intrinsic clearance,[2],7.2 mL/min/g
same,EC50,L6,183 µM
same,EC50,Trypanosoma cruzi [6],6400 nM
same,solubility kinetic,[7],> 270 µM
CC[C@H]1CC[C@H](n2c(=O)[nH]c3ccc(NC(C)=O)cc3c2=O)CC1,selectivity ratio,[1],240
same,intrinsic clearance,[2],2.4 mL/min/g
same,EC50,L6,14 µM
same,EC50,Trypanosoma cruzi [6],58 nM
same,solubility kinetic,[7],115 µM
CC[C@H]1CC[C@@H](n2c(=O)[nH]c3ncc(NC(C)=O)cc3c2=O)CC1,selectivity ratio,[1],150
same,intrinsic clearance,[2],2.7 mL/min/g
same,EC50,L6,48 µM
same,EC50,Trypanosoma cruzi [6],330 nM
same,solubility kinetic,[7],48 µM
CC(=O)Nc1cnc2[nH]c(=O)n([C@H]3CC[C@H](C(C)(C)C)CC3)c(=O)c2c1,selectivity ratio,[1],80
same,intrinsic clearance,[2],1.4 mL/min/g
same,EC50,L6,67 µM
same,EC50,Trypanosoma cruzi [6],840 nM
same,solubility kinetic,[7],310 µM
CC(=O)Nc1cnc2[nH]c(=O)n([C@H]3CC[C@@H](C(C)(C)C)CC3)c(=O)c2c1,selectivity ratio,[1],150
same,intrinsic clearance,[2],15 mL/min/g
same,EC50,L6,15 µM
same,EC50,Trypanosoma cruzi [6],100 nM
same,solubility kinetic,[7],< 28 µM
CCC[C@H]1CC[C@H](n2c(=O)[nH]c3ccc(NC(C)=O)cc3c2=O)CC1,selectivity ratio,[1],730
same,intrinsic clearance,[2],1.5 mL/min/g
same,EC50,L6,11 µM
same,EC50,Trypanosoma cruzi [6],15 nM
same,solubility kinetic,[7],47 µM
CC(C)[C@H]1CC[C@H](n2c(=O)[nH]c3ncc(N)cc3c2=O)CC1,selectivity ratio,[1],380
same,intrinsic clearance,[2],1.9 mL/min/g
same,EC50,L6,46 µM
same,EC50,Trypanosoma cruzi [6],120 nM
same,solubility kinetic,[7],25 µM
CCC[C@H]1CC[C@@H](n2c(=O)[nH]c3ccc(NC(C)=O)cc3c2=O)CC1,selectivity ratio,[1],700
same,intrinsic clearance,[2],19 mL/min/g
same,EC50,L6,14 µM
same,EC50,Trypanosoma cruzi [6],20 nM
same,solubility kinetic,[7],102 µM
CC[C@H]1CC[C@@H](n2c(=O)[nH]c3ccc(NC(C)=O)cc3c2=O)CC1,selectivity ratio,[1],460
same,intrinsic clearance,[2],12 mL/min/g
same,EC50,L6,39 µM
same,EC50,Trypanosoma cruzi [6],85 nM
same,solubility kinetic,[7],73 µM
CC[C@H]1CC[C@H](n2c(=O)[nH]c3ncc(N)cc3c2=O)CC1,selectivity ratio,[1],150
same,intrinsic clearance,[2],0.9 mL/min/g
same,EC50,L6,51 µM
same,EC50,Trypanosoma cruzi [6],340 nM
same,solubility kinetic,[7],55 µM
CC(C)(C)[C@H]1CC[C@H](n2c(=O)[nH]c3ccc(N)cc3c2=O)CC1,MTD,[8],30 mg/kg
same,selectivity ratio,[1],330
same,intrinsic clearance,[2],2 mL/min/g
same,Activity,Trypanosoma cruzi [3],inactive
same,EC50,L6,21 µM
same,Activity,Trypanosoma cruzi [4],inactive
same,fraction unbound,[5],0.011
same,EC50,Trypanosoma cruzi [6],63 nM
CC[C@H]1CC[C@@H](n2c(=O)[nH]c3ccc(N)cc3c2=O)CC1,selectivity ratio,[1],160
same,intrinsic clearance,[2],5.2 mL/min/g
same,EC50,L6,52 µM
same,EC50,Trypanosoma cruzi [6],330 nM
same,EC90,Trypanosoma cruzi [6],1.2 µg/mL
same,solubility kinetic,[7],> 350 µM
